The results in this text go back to PubChem BioAssay AID248 (DTP/NCI, 2004).

The subject of the assay is L1210 leukemia ip in BDF1 mice, survival T/C. Nature of the assay: NCI In Vivo Anticancer Drug Screen. Data for tumor model L1210 Leukemia (intraperitoneal) in B6D2F1 (BDF1) mice. The following applies: endpoint: mean survival time, higher = longer survival. In a few lines:
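Tumor cells were implanted, animals were treated, and survival was followed. The result divides the treated measurement by the vehicle-control measurement.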

Setting [1] is: dose: 100.0 mg/kg/injection, schedule: Q04DX002 (ip), vehicle: Klucel (hydroxypropylcellulose) (HPC).
[2] abbreviates: dose: 200.0 mg/kg/injection, schedule: Q04DX002 (ip), vehicle: Klucel (hydroxypropylcellulose) (HPC).
Where [3] appears, read: dose: 400.0 mg/kg/injection, schedule: Q04DX002 (ip), vehicle: Klucel (hydroxypropylcellulose) (HPC).
The mark [4] stands for this setting: dose: 100.0 mg/kg/injection, schedule: Q04DX003 (ip), vehicle: Klucel (hydroxypropylcellulose) (HPC).
Setting [5] is: dose: 200.0 mg/kg/injection, schedule: Q04DX003 (ip), vehicle: Klucel (hydroxypropylcellulose) (HPC).
Where [6] appears, read: dose: 400.0 mg/kg/injection, schedule: Q04DX003 (ip), vehicle: Klucel (hydroxypropylcellulose) (HPC).
Where [7] appears, read: dose: 50.0 mg/kg/injection, schedule: Q01DX009 (ip), vehicle: saline.
Setting [8] is: dose: 100.0 mg/kg/injection, schedule: Q01DX009 (ip), vehicle: saline.
Where [9] appears, read: dose: 200.0 mg/kg/injection, schedule: Q01DX009 (ip), vehicle: saline.
Setting [10] is: dose: 100.0 mg/kg/injection, schedule: Q04DX002 (ip), vehicle: saline with Tween-80.
Where [11] appears, read: dose: 200.0 mg/kg/injection, schedule: Q04DX002 (ip), vehicle: saline with Tween-80.
[12] abbreviates: dose: 100.0 mg/kg/injection, schedule: Q04DX003 (ip), vehicle: saline with Tween-80.
The mark [13] stands for this setting: dose: 200.0 mg/kg/injection, schedule: Q04DX003 (ip), vehicle: saline with Tween-80.
[14] abbreviates: dose: 400.0 mg/kg/injection, schedule: Q04DX003 (ip), vehicle: saline with Tween-80.
[15] abbreviates: dose: 100.0 mg/kg/injection, schedule: Q01DX001 (ip), vehicle: carboxymethylcellulose (CMC).
The mark [16] stands for this setting: dose: 200.0 mg/kg/injection, schedule: Q01DX001 (ip), vehicle: carboxymethylcellulose (CMC).
The mark [17] stands for this setting: dose: 400.0 mg/kg/injection, schedule: Q01DX001 (ip), vehicle: carboxymethylcellulose (CMC).
The mark [18] stands for this setting: dose: 100.0 mg/kg/injection, schedule: Q01DX009 (ip), vehicle: saline with Tween-80.
Where [19] appears, read: dose: 200.0 mg/kg/injection, schedule: Q01DX009 (ip), vehicle: saline with Tween-80.
Where [20] appears, read: dose: 400.0 mg/kg/injection, schedule: Q01DX009 (ip), vehicle: saline with Tween-80.
Setting [21] is: dose: 100.0 mg/kg/injection, schedule: Q01DX001 (ip), vehicle: Klucel (hydroxypropylcellulose) (HPC).
The mark [22] stands for this setting: dose: 200.0 mg/kg/injection, schedule: Q01DX001 (ip), vehicle: Klucel (hydroxypropylcellulose) (HPC).
Where [23] appears, read: dose: 400.0 mg/kg/injection, schedule: Q01DX001 (ip), vehicle: Klucel (hydroxypropylcellulose) (HPC).

The structures appear in SMILES notation. “And” between values parts separate entries of the source, which are not always exact repeats. Identical values can stand only once. Toxic doses and inconclusive results are not listed.

For `Cn1nc2c(N)ncnc2c1C1OC(CO)C(O)C1O` (stereo not drawn), the T/C is, setting by setting: (dose: 100.0 mg/kg/injection, schedule: Q01DX005 (ip), vehicle: saline) 116 % of control; (dose: 200.0 mg/kg/injection, schedule: Q01DX005 (ip), vehicle: saline) 106 % of control.
`COC(=O)N1C(c2ccccc2)(c2ccccc2)CS1(=O)=O`: the T/C was 112 % of control under setting [1], 104 % of control under setting [2] and 93 % of control under setting [3].
On to `O=C[C@@H](CO)O[C@H](C=O)c1c[nH]c(=O)[nH]c1=O`, for which the T/C runs as follows: (dose: 66.0 mg/kg/injection, schedule: Q03DX003 (ip), vehicle: saline) 213 % of control; (dose: 80.0 mg/kg/injection, schedule: Q04DX003 (ip), vehicle: saline) 168 % of control; (dose: 100.0 mg/kg/injection, schedule: Q04DX003 (ip), vehicle: saline) 209 % of control; (dose: 120.0 mg/kg/injection, schedule: Q04DX003 (ip), vehicle: saline) 252 % of control; (dose: 140.0 mg/kg/injection, schedule: Q04DX003 (ip), vehicle: saline) 204 % of control; (dose: 150.0 mg/kg/injection, schedule: Q03DX003 (ip), vehicle: saline) 217 % of control.
Consider `O=C1c2ccccc2-c2ccc(-c3ccc4c5c(cccc35)C(=O)c3ccccc3-4)c3cccc1c23`, for which the T/C under setting [4] is 89 % of control, the T/C under setting [5] is 95 % of control and the T/C under setting [6] was 89 % of control.
For the molecule `O=S(=O)(O)CCc1ccccn1`, the T/C under setting [7] was 106 % of control, the T/C under setting [8] is 109 % of control and the T/C under setting [9] is 92 % of control.
Take `CC([NH-])C(C)[NH-].[Cl][Pd][Cl]` (stereo not drawn): the T/C is, setting by setting: (dose: 12.5 mg/kg/injection, schedule: Q04DX002 (ip), vehicle: Klucel (hydroxypropylcellulose) (HPC)) 97 % of control; (dose: 25.0 mg/kg/injection, schedule: Q04DX002 (ip), vehicle: Klucel (hydroxypropylcellulose) (HPC)) 97 % of control; (dose: 50.0 mg/kg/injection, schedule: Q04DX002 (ip), vehicle: Klucel (hydroxypropylcellulose) (HPC)) 93 % of control; (dose: 50.0 mg/kg/injection, schedule: Q04DX002 (ip), vehicle: saline with Tween-80) 93 % of control; under setting [10], 90 % of control; under setting [11], 97 % of control.
`CCCC(C)C(C)CC` (stereo not drawn): the T/C is 107 % of control (dose: 25.0 mg/kg/injection, schedule: Q01DX001 (ip), vehicle: saline sonified); 98 % of control (dose: 50.0 mg/kg/injection, schedule: Q01DX001 (ip), vehicle: saline sonified); 93 % of control (dose: 100.0 mg/kg/injection, schedule: Q01DX001 (ip), vehicle: saline sonified).
For `COc1ccc(/C=C2\CCC3C4(CCCC3(C)C2=O)OCCO4)cc1` (stereo not drawn), the T/C by setting is: under setting [9], 92 % of control; (dose: 400.0 mg/kg/injection, schedule: Q01DX009 (ip), vehicle: saline) 101 % of control.
On to `NC(CC1CCCCC1)C(=O)O` (stereo not drawn), for which the T/C reads like this: under setting [1], 91 % of control; under setting [2], 88 % of control; under setting [3], 91 % of control.
For `CN1CSCSC1`, the T/C runs as follows: under setting [7], 104 % of control; under setting [8], 98 % of control; under setting [12], 101 % of control; under setting [13], 100 % of control; under setting [14], 97 % of control.
For the molecule `CS(=O)(=O)c1ccc2c(c1)-c1ccc(N)cc1C2=O`, the T/C by setting is: under setting [15], 117 % of control; under setting [16], 102 % of control; under setting [17], 102 % of control.
On to `CN(C)/N=C/c1ccc(-c2ccccc2)cc1`, for which the T/C by setting is: under setting [18], 95 % of control; under setting [19], 111 % of control; under setting [20], 102 % of control.
For `COC(OC)c1[nH]c(=S)[nH]c(=O)c1CCCc1ccccc1`, the T/C was 94 % of control under setting [18]; 100 % of control under setting [12]; 105 % of control under setting [19]; 100 % of control under setting [13]; 86 % of control under setting [20]; 96 % of control under setting [14].
For the molecule `COc1cc(/C=N\N=C\c2ccc(O)c(OC)c2)ccc1O`, the T/C under setting [12] was 100 % of control, the T/C under setting [13] is 94 % of control and the T/C under setting [14] is 93 % of control.
As for `COc1ccc2c(c1O)C13CCN(C)C(C2)C12C=CC(=O)C3c1c(O)ccc(O)c12` (stereo not drawn), the T/C is, setting by setting: under setting [15], 92 % of control; under setting [16], 97 % of control; under setting [17], 95 % of control.
`CCOC(=O)NCC(C)(CCN1CCCCC1)c1cccc2ccccc12` (stereo not drawn): the T/C (dose: 6.25 mg/kg/injection, schedule: Q04DX003 (ip), vehicle: saline with Tween-80) is 104 % of control; the T/C (dose: 12.5 mg/kg/injection, schedule: Q04DX003 (ip), vehicle: saline with Tween-80) was 98 % of control; the T/C (dose: 25.0 mg/kg/injection, schedule: Q04DX003 (ip), vehicle: saline with Tween-80) was 97 % of control.
On to `NC(=S)N/N=C\c1cccs1`, for which the T/C by setting is: under setting [1], 96 % of control; under setting [2], 107 % of control; under setting [3], 102 % of control.
Regarding `CCS(=O)(=O)/C=C/c1cccnc1`, the T/C was 96 % of control (dose: 100.0 mg/kg/injection, schedule: Q04DX002 (ip), vehicle: saline); 100 % of control (dose: 200.0 mg/kg/injection, schedule: Q04DX002 (ip), vehicle: saline); 107 % of control (dose: 400.0 mg/kg/injection, schedule: Q04DX002 (ip), vehicle: saline).
Consider `O=C(O)C1C2CC=CCC21` (stereo not drawn), for which the T/C is, setting by setting: (dose: 25.0 mg/kg/injection, schedule: Q01DX001 (ip), vehicle: Klucel (hydroxypropylcellulose) (HPC)) 102 % of control; (dose: 50.0 mg/kg/injection, schedule: Q01DX001 (ip), vehicle: Klucel (hydroxypropylcellulose) (HPC)) 101 % of control; under setting [21], 93 % of control and 94 % of control; under setting [4], 101 % of control; under setting [22], 93 % of control; under setting [5], 98 % of control. In addition, the T/C is, setting by setting: under setting [23], 97 % of control; under setting [6], 102 % of control.
As to `Cc1ccc(S(=O)(=O)OC2CCC(C(C)(C)C)C(Cl)C2)cc1` (stereo not drawn), the T/C was 103 % of control under setting [21], 87 % of control under setting [22] and 94 % of control under setting [23].
For the molecule `O=C(Nc1ccccc1C(F)(F)F)N(Cc1ccccc1)Cc1ccccc1`, the T/C was 101 % of control (dose: 100.0 mg/kg/injection, schedule: Q01DX009 (ip), vehicle: Klucel (hydroxypropylcellulose) (HPC)); 87 % of control (dose: 200.0 mg/kg/injection, schedule: Q01DX009 (ip), vehicle: Klucel (hydroxypropylcellulose) (HPC)); 95 % of control (dose: 400.0 mg/kg/injection, schedule: Q01DX009 (ip), vehicle: Klucel (hydroxypropylcellulose) (HPC)).
`O=C(O)c1cscn1`: the T/C (dose: 100.0 mg/kg/injection, schedule: Q01DX001 (ip), vehicle: saline) was 93 % of control; the T/C under setting [18] was 101 % of control and 90 % of control; the T/C under setting [10] was 97 % of control and 107 % of control; the T/C under setting [12] is 108 % of control; the T/C (dose: 200.0 mg/kg/injection, schedule: Q01DX001 (ip), vehicle: saline) was 103 % of control; the T/C under setting [19] is 95 % of control and 97 % of control. Further, the T/C reads like this: under setting [11], 97 % of control and 106 % of control; under setting [13], 98 % of control; (dose: 400.0 mg/kg/injection, schedule: Q01DX001 (ip), vehicle: saline) 93 % of control; under setting [20], 92 % of control; (dose: 400.0 mg/kg/injection, schedule: Q04DX002 (ip), vehicle: saline with Tween-80) 102 % of control and 92 % of control.
